The values that follow come from US12509459B2, “Inhibitors of NLRP3 inflammasome” (BioAge Labs, Inc., priority 2024, dated 2025).

Sequence of NLRP3 (Q96P20 whole entry): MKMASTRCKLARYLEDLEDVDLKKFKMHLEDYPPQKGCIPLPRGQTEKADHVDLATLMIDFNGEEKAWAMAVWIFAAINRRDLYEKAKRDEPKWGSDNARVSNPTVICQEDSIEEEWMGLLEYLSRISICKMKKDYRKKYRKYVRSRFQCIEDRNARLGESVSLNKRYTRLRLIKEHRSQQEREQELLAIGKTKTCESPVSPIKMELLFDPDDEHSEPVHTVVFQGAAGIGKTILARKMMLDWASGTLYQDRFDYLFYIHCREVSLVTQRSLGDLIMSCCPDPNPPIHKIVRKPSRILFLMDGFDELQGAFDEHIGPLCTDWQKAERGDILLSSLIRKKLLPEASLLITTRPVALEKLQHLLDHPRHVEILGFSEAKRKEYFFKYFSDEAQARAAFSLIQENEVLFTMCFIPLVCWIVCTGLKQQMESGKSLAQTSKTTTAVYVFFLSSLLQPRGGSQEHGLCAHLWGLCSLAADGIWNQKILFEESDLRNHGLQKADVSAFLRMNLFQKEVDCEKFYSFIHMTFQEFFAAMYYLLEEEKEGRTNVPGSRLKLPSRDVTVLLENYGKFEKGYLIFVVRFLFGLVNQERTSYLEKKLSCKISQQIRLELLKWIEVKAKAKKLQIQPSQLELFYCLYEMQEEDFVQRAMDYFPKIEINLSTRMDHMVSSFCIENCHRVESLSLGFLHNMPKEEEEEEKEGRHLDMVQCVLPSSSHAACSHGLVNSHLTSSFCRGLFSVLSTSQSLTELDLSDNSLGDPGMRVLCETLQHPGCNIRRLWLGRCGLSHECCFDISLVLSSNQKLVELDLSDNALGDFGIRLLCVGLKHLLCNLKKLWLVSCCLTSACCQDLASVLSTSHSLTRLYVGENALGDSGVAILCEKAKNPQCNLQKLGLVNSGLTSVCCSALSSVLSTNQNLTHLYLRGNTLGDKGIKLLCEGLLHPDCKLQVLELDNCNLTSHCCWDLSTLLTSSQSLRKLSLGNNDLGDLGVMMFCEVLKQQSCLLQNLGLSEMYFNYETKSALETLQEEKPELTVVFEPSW

The experiment addresses NLRP3 (Homo sapiens, UniProt Q96P20). Description: THP-1 cell-based NLRP3 activation assay. More on the design: endogenous in cells; host or cells: THP-1 cells (PMA-differentiated, LPS-primed, nigericin-stimulated). As to conditions: PMA-differentiated THP-1 cells, LPS 100 ng/mL then 10 μM nigericin. In short, it runs like this: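 THP-1 cells were PMA-differentiated (20 nM, 24 h or 500 nM, 3 h), primed with 100 ng/mL LPS for 3 h, then given compound in Opti-Mem for 30 min before 10 μM nigericin for 1 h. Supernatants assayed; viability of adherent cells by CellTiter-Glo.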
As usually defined, the IC50 is the concentration that gives 50% inhibition. In the case of `CCOc1cc(C(=O)N(C)[C@@H](c2cncc3cn[nH]c23)C2CNC2)ccc1-c1cccc(Cl)c1` [Compound 181], the half-maximal inhibitory concentration (IC50) was below 0.1 µM.

`CCOc1cc(C(=O)N(C)[C@H](c2cncc3cn[nH]c23)C2CNC2)ccc1-c1cccc(Cl)c1` [Compound 182] displayed an IC50 below 0.1 µM.

As to `CCOc1cc(C(=O)N(C)[C@@H](c2cncc3cn[nH]c23)C2CN(C)C2)ccc1-c1cccc(Cl)c1` [Compound 183], the IC50 is below 0.1 µM.

In turn, `CCOc1cc(C(=O)N(C)[C@H](CCN(CC)CCF)c2cncc3cn[nH]c23)ccc1-c1cccc(F)c1` [Compound 184] registered a half-maximal inhibitory concentration (IC50) below 0.1 µM.

In turn, `CCOc1cc(C(=O)N(C)[C@H](CCN)c2cncc3cn[nH]c23)ccc1C` [Compound 185] had an IC50 of 1 to 15 µM.

Regarding `CCOc1cc(C(=O)N(C)[C@H](CCN(C)C)c2cccc3cn[nH]c23)ccc1-c1cccc(F)c1` [Compound 186], the half-inhibitory concentration (IC50) was below 0.1 µM.

As for `CCOc1cc(C(=O)N(C)[C@@H](CN2CC(N(C)C)C2)c2cncc3cn[nH]c23)ccc1-c1cccc(F)c1` [Compound 187], the IC50 was below 0.1 µM.

The compound `CCOc1cc(C(=O)N(C)[C@H](CN(C)C)c2cnc(CO)c3cn[nH]c23)ccc1-c1cccc(F)c1` [Compound 188] came in with an IC50 below 0.1 µM.

Turning to `CCOc1cc(C(=O)N(C)C(c2cncc3cn[nH]c23)C2C[N+](C)([O-])C2)ccc1-c1cccc(F)c1` (centres unmarked) [Compound 192], the IC50 is 0.1 to 0.5 µM.

In turn, `CCOc1cc(C(=O)N(C)[C@H](CCNC)c2cncc3cn[nH]c23)ccc1-c1ccccc1` [Compound 193] came in with an IC50 below 0.1 µM.

Compound `CCOc1cc(C(=O)N(C)[C@H](CCN(C)C)c2cccc3cn[nH]c23)ccc1-c1ccccc1` [Compound 194] displayed a 50% inhibitory concentration (IC50) below 0.1 µM.

On to `CCOc1cc(C(=O)N(C)[C@H](CCN(C)C)c2cccc3cn[nH]c23)ccc1-c1cccc(C)c1` [Compound 195], for which the IC50 is below 0.1 µM.

On to `CCOc1cc(C(=O)N(C)[C@H](CCN(C)C)c2cccc3cn[nH]c23)ccc1-c1cccc(C#N)c1` [Compound 196], for which the IC50 was below 0.1 µM.

`CCOc1cc(C(=O)N(C)[C@H](CCNC)c2cccc3cn[nH]c23)ccc1-c1cccc(F)c1` [Compound 197] showed a half-inhibitory concentration (IC50) below 0.1 µM.

Regarding `CN(C)CC[C@H](c1cccc2cn[nH]c12)N(C)C(=O)c1ccc(-c2cccc(F)c2)c(OC2CC2)c1` [Compound 198], the IC50 was below 0.1 µM.

`CN(C)CC[C@H](c1cccc2cn[nH]c12)N(C)C(=O)c1ccc(-c2ccccc2)c(OC2CC2)c1` [Compound 199] returned an IC50 below 0.1 µM.

Turning to `CCOc1cc(C(=O)N(C)[C@H](CCN(C)C)c2ccc(C)c3cn[nH]c23)ccc1-c1cccc(F)c1` [Compound 200], the IC50 was in the range of 0.1 to 0.5 µM.

Compound `CCOc1cc(C(=O)N(C)[C@@H](CCN(C)C)c2ccc(C)c3cn[nH]c23)ccc1-c1cccc(F)c1` [Compound 201] showed an IC50 of 0.1 to 0.5 µM.

Turning to `Cc1ccc([C@@H](CCN(C)C)N(C)C(=O)c2ccc(-c3cccc(F)c3)c(OC3CC3)c2)c2[nH]ncc12` [Compound 202], the IC50 is below 0.1 µM.

As for `Cc1ccc([C@H](CCN(C)C)N(C)C(=O)c2ccc(-c3cccc(F)c3)c(OC3CC3)c2)c2[nH]ncc12` [Compound 203], the concentration for half-maximal inhibition (IC50) was below 0.1 µM.

For `CCOc1cc(C(=O)N(C)[C@H](CCN(C)C)c2ccc(C)c3cn[nH]c23)ccc1-c1ccccc1` [Compound 204], the IC50 was in the range of 0.1 to 0.5 µM.

`CCOc1cc(C(=O)N(C)[C@@H](CCN(C)C)c2ccc(C)c3cn[nH]c23)ccc1-c1ccccc1` [Compound 205]: the IC50 is below 0.1 µM.

Regarding `CCOc1cc(C(=O)N(C)[C@H](CC[N+](C)(C)[O-])c2cccc3cn[nH]c23)ccc1-c1cccc(Cl)c1` [Compound 206], the IC50 was below 0.1 µM.

Consider `CCOc1cc(C(=O)N(C)[C@H](CC[N+]([O-])(CC)CC)c2cccc3cn[nH]c23)ccc1-c1cccc(Cl)c1` [Compound 207], for which the IC50 was below 0.1 µM.

Compound `CCOc1cc(C(=O)N(C)[C@H](CN(C)C)c2cncc3cn[nH]c23)ccc1C(C)C` [Compound 208] yielded an IC50 of 1 to 15 µM.

Turning to `CCOc1cc(C(=O)N(C)[C@@H](CN(C)C)c2cncc3cn[nH]c23)ccc1C(C)C` [Compound 209], the half-inhibitory concentration (IC50) was below 0.1 µM.

For the compound `CCOc1cc(C(=O)N(C)[C@H](CC[N+](C)(C)[O-])c2cncc3cn[nH]c23)ccc1-c1cccc(Cl)c1` [Compound 210], the IC50 is 1 to 15 µM.

In the case of `CCOc1cc(C(=O)N(C)[C@@H](CCN(C)C)c2cccc3cn[nH]c23)ccc1-c1ccccc1` [Compound 212], the IC50 is below 0.1 µM.

With `CCOc1cc(C(=O)N(C)[C@H](CCN(C)C)c2cccc3cn[nH]c23)ccc1-c1cccc(Cl)c1` [Compound 213], the 50% inhibitory concentration (IC50) is below 0.1 µM.

`CCOc1cc(C(=O)N(C)[C@H](CCN(C)CC)c2cccc3cn[nH]c23)ccc1-c1cccc(F)c1` [Compound 214] had an IC50 below 0.1 µM.

`CCOc1cc(C(=O)N(C)[C@H](CCN(CC)CC)c2cccc3cn[nH]c23)ccc1-c1cccc(F)c1` [Compound 215] gave a half-inhibitory concentration (IC50) below 0.1 µM.

`CCOc1cc(C(=O)N(C)[C@H](CC[N+]([O-])(CC)CC)c2cccc3cn[nH]c23)ccc1-c1cccc(F)c1` [Compound 216] displayed an IC50 below 0.1 µM.

Consider `CCOc1cc(C(=O)N(C)[C@H](CCN2CCC2)c2cccc3cn[nH]c23)ccc1-c1cccc(F)c1` [Compound 217], for which the IC50 was below 0.1 µM.

As to `CCOc1cc(C(=O)N(C)[C@H](CCN2CCC2)c2cccc3cn[nH]c23)ccc1-c1cccc(Cl)c1` [Compound 218], the IC50 was below 0.1 µM.

`CCOc1cc(C(=O)N(C)[C@H](CCN(C)C)c2cccc3cn[nH]c23)ccc1-c1cc(F)cc(F)c1` [Compound 219] showed an IC50 below 0.1 µM.

Compound `CCOc1cc(C(=O)N(C)[C@H](CN(C)C)c2cccc3cn[nH]c23)ccc1-c1cccc(Cl)c1` [Compound 220] returned a concentration for half-maximal inhibition (IC50) of 0.1 to 0.5 µM.

`CCOc1cc(C(=O)N(C)[C@@H](CN(C)C)c2cccc3cn[nH]c23)ccc1-c1cccc(Cl)c1` [Compound 221] returned a half-maximal inhibitory concentration (IC50) below 0.1 µM.

Turning to `CCOc1cc(C(=O)N(C)[C@H](CN2CCCC2)c2cccc3cn[nH]c23)ccc1-c1cccc(F)c1` [Compound 222], the IC50 fell in the range of 0.5 to 1 µM.

`CCOc1cc(C(=O)N(C)[C@@H](CN2CCCC2)c2cccc3cn[nH]c23)ccc1-c1cccc(F)c1` [Compound 223] returned an IC50 below 0.1 µM.

As for `CCOc1cc(C(=S)N(C)[C@H](CCN(C)C)c2cncc3cn[nH]c23)ccc1-c1cccc(F)c1` [Compound 224], the IC50 was below 0.1 µM.

As for `CN(C(=O)c1ccc(-c2cccc(F)c2)c(OC2CC2)c1)[C@H](CCN1CCC1)c1cncc2cn[nH]c12` [Compound 225], the IC50 was below 0.1 µM.

For the compound `CCOc1cc(C(=O)N(C)C(CN(C)C)c2cncc3cn[nH]c23)ccc1-c1ccccc1` (centres unmarked) [Compound 226], the IC50 fell in the range of 0.1 to 0.5 µM.

As to `CCOc1cc(C(=O)N(C)[C@H](CC[N+](C)(C)[O-])c2cccc3cn[nH]c23)ccc1-c1cccc(F)c1` [Compound 227], the IC50 was below 0.1 µM.

The compound `CCOc1cc(C(=O)N(C)[C@H](CCNC)c2cncc3cn[nH]c23)ccc1-c1cccc(Cl)c1` [Compound 228] showed an IC50 below 0.1 µM.

On to `CCOc1cc(C(=O)N(C)[C@H](CCN(C)CCOC)c2cncc3cn[nH]c23)ccc1-c1cccc(Cl)c1` [Compound 229], for which the IC50 is below 0.1 µM.

In turn, `CCOc1cc(C(=O)N(C)[C@H](CCN(C)CCO)c2cncc3cn[nH]c23)ccc1-c1cccc(Cl)c1` [Compound 230] returned an IC50 below 0.1 µM.

`[2H]C([2H])([2H])NCC[C@H](c1cncc2cn[nH]c12)N(C)C(=O)c1ccc(-c2cccc(F)c2)c(OCC)c1` [Compound 231] registered an IC50 below 0.1 µM.

In turn, `CCOc1cc(C(=O)N(C)[C@H](CCNC)c2cncc3cn[nH]c23)ccc1-c1cccc(C#N)c1` [Compound 232] showed an IC50 below 0.1 µM.

The compound `CCOc1cc(C(=O)N(C)[C@H](CCNC)c2cccc3cn[nH]c23)ccc1-c1cccc(Cl)c1` [Compound 233] yielded an IC50 below 0.1 µM.

The compound `CCOc1cc(C(=O)N(Cc2cncc3cn[nH]c23)[C@H]2C[C@@H](NC)C2)ccc1-c1cccc(F)c1` [Compound 234] gave an IC50 of 1 to 15 µM.

`CCOc1cc(C(=O)N(Cc2cncc3cn[nH]c23)C2CC(NC)C2)ccc1-c1cccc(F)c1` (centres unmarked) [Compound 235] showed an IC50 of 0.1 to 0.5 µM.

In turn, `CCOc1cc(C(=O)N(Cc2cncc3cn[nH]c23)C2CC(NC)C2)ccc1-c1cccc(Cl)c1` (centres unmarked) [Compound 236] showed an IC50 below 0.1 µM.

In turn, `CCOc1cc(C(=O)N(Cc2cncc3cn[nH]c23)C2CC(NC)C2)ccc1-c1ccccc1` (centres unmarked) [Compound 237] gave an IC50 of 1 to 15 µM.

In the case of `CCOc1cc(C(=O)N(Cc2cncc3cn[nH]c23)[C@H]2C[C@@H](NC)C2)ccc1-c1cccc(Cl)c1` [Compound 238], the half-inhibitory concentration (IC50) was below 0.1 µM.

In turn, `CCOc1cc(C(=O)N(Cc2cncc3cn[nH]c23)[C@H]2C[C@@H](NC)C2)ccc1-c1ccccc1` [Compound 239] registered an IC50 below 0.1 µM.

For `CCOc1cc(C(=O)N(Cc2cncc3cn[nH]c23)C2CC(N(C)C)C2)ccc1-c1cccc(F)c1` (centres unmarked) [Compound 240], the IC50 was in the range of 0.5 to 1 µM.

As to `CCOc1cc(C(=O)N(C)C(c2cccc3cn[nH]c23)C2CN(C)C2)ccc1-c1cccc(Cl)c1` (centres unmarked) [Compound 241], the 50% inhibitory concentration (IC50) is below 0.1 µM.

On to `CCOc1cc(C(=O)N(Cc2cncc3cn[nH]c23)C2CC(N(C)C)C2)ccc1-c1cccc(Cl)c1` (centres unmarked) [Compound 242], for which the IC50 was in the range of 0.1 to 0.5 µM.

As to `CCOc1cc(C(=O)N(Cc2cncc3cn[nH]c23)C2CC(N(C)C)C2)ccc1-c1ccccc1` (centres unmarked) [Compound 243], the IC50 is 1 to 15 µM.

Compound `CCOc1cc(C(=O)N(Cc2cncc3cn[nH]c23)[C@H]2C[C@@H](N(C)C)C2)ccc1-c1cccc(F)c1` [Compound 244] returned an IC50 below 0.1 µM.

With `CCOc1cc(C(=O)N(Cc2cncc3cn[nH]c23)[C@H]2C[C@@H](N(C)C)C2)ccc1-c1ccccc1` [Compound 245], the IC50 is below 0.1 µM.

Turning to `CCOc1cc(C(=O)N(C)C(CN2CC(O)C2)c2cncc3cn[nH]c23)ccc1-c1cccc(F)c1` (centres unmarked) [Compound 246], the IC50 is below 0.1 µM.
